# Experiments:
# 5-HT2A receptor [1] = target: T1, 5-HT2A receptor (Homo sapiens, UniProt P28223); test: Eurofins selectivity panel, radioligand competition binding at 10 μM
# T1 construct: Eurofins (contract study)
# Method: (§1) The inhibitory potential of Compound 1 was tested against 38 diverse non-kinase enzymes and 55 receptors, ion channels and neurotransmitter transporters in radioligand competition binding assays using mostly human recombinant proteins. […] Compound 1 was also tested against an additional panel of 468 protein kinases. Studies were performed at Eurofins (Luxembourg City, Luxembourg) using their published assay formats.
# human A1 receptor = target: T2, human A1 receptor (Homo sapiens, UniProt P30542); test: as above
# T2 construct: Eurofins (contract study)
# T2 sequence (P30542 whole entry): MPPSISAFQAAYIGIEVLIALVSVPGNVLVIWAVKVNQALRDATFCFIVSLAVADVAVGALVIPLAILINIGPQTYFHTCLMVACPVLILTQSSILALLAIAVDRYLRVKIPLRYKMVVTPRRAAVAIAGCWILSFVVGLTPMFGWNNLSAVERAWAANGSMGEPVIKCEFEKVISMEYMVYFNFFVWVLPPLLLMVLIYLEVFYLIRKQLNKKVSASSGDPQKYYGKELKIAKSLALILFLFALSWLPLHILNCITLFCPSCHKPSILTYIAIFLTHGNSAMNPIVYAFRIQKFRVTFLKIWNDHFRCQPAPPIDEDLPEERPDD
# Method: as §1
# 5-HT2A receptor [2] = target: T1, 5-HT2A receptor; test: Follow-on study, agonist and antagonist IC50; type: binding; conditions: antagonist
# [3] = test system: T025OV ovarian cancer patient-derived xenograft; test: T025OV ovarian cancer PDX model; type: in vivo, NOG mice; conditions: 75 mg/kg BID, 50 days
# Method: tissue from a treatment naïve patient with Stage 1 serous ovarian cancer was obtained from Discovery Life Sciences (Huntsville, AL, Case ID #200000835) and was expanded by subcutaneous implantation into female NOG mice. For tumor development, mice were inoculated subcutaneously on the right flank with isolated […] cells at 1×10^6 viable cells per mouse in 0.2 mL of DPBS mixed with Matrigel® Growth Factor Reduced Basement Membrane Matrix (1:1 ratio) (Corning®, Tewksbury, MA, USA, Cat #356237). Groups were established and drug treatment initiated when the mean tumor volume reached approximately 140-150 mm^3. […] For all studies, tumor volumes and body weights were measured twice weekly. […] Statistical analysis of end-of-study mean tumor volumes for the […] model was performed using an unpaired t-test with Welch's correction.
# [4] = test system: Resistant SNU601 cells (acquired niraparib resistance); test: 6-day proliferation, nuclei count, PARP inhibitor resistant line; type: cell-based, human
# Method: The SNU601 gastric carcinoma cell line (Creative Bioarray, Cat #CSC-C9686L) was cultured in RPMI media containing glutamax, 10% fetal bovine serum, and 1% penicillin/streptomycin at 37° C., 5% CO2. To generate a PARP inhibitor resistant cell line, an IC20 concentration of niraparib was added to the culture media.
# Compound 1 and the PARP inhibitor niraparib were tested in cellular proliferation assays using the parental SNU601 cell line and the SNU601 cell line with acquired PARPi resistance. For the proliferation assays, cells were plated in 96-well plates (Corning costar 3603) at 2500-5000 cells/well in normal growth media. The next day, compound dissolved in vehicle (0.5% DMSO in media) was added to generate a 7- to 10-point concentration curve with half-log dilutions and starting concentrations of 10 or 31.6 μM. After 6 days of compound or vehicle treatment, the cells were fixed with a solution of 8% paraformaldehyde, 0.2% Triton X-100 for 20 minutes. After washing the cells with PBS, the nuclei were stained by the addition of DAPI (4′,6-diamidino-2-phenylindole) and incubation for 20 minutes. The number of nuclei in each well were counted by imaging the plates on an Image Xpress Pico automated cell imaging system (Molecular Devices). The percent proliferation after treatment was determined by normalizing the number of nuclei in treated wells to the vehicle-treated wells. Concentration-response-curves and IC50 values for percent inhibition of proliferation were generated by non-linear regression analysis using GraphPad Prism 10 software.
# GP2D cells = test: 6-day growth assay, Compound 1 in combination with exatecan; type: cell-based, human
# Method: The activity of Compound 1 in combination with exatecan was evaluated in the HCC1954, HCC1806, and GP2D cancer cell lines in a 6-day growth assay. HCC1954 (Cat #CRL-2338) and HCC1806 (Cat #CRL-2335) cells were obtained from American Type Culture Collection (ATCC) and maintained in ATCC modified RPMI (Cat #30-2001)+10% FBS (Cat #A3160502)+1% penicillin/streptomycin (Cat #15140-122) in a humidified incubator at 37° C., 5% CO2. GP2D cells were obtained from ECACC (Cat #95090714-1VL) and maintained in DMEM+GlutaMAX (Cat #10566-016)+10% FBS (Cat #A3160502)+1% penicillin/streptomycin (Cat #15140-122). Cells were seeded at 2,500 cells/well (HCC1954 and GP2D) or 2,000 cells/well (HCC1806) in 100 μL of growth medium in a 96-well plate (Corning costar Cat #3603) and allowed to adhere overnight at 37° C. with 5% CO2. The next day, serial dilutions of Compound 1 and exatecan were prepared and added to the corresponding wells of a 96-well plate. A solution of 0.1% DMSO in medium was used as the negative control. Cells were incubated with compound for 6 days at 37° C. with 5% CO2, then fixed, stained, and counted as described in Example 3. Concentration response-curves and IC50 values were generated by non-linear regression analysis using a 4-parameter variable slope fit in GraphPad Prism 10 software. Potential synergy between Compound 1 and exatecan was assessed using Zero interaction potency (ZIP), Highest Single Agent (HSA), Bliss, and Loewe synergy models to find the most synergistic area score, where scores >10 indicate that the interaction between the two drugs is likely to be synergistic (Ianevski et al. 2020).
# [5] = test system: HCC1428 breast cancer xenograft; conditions: monotherapy or in combinations
# Method: The CDX model was established by subcutaneous inoculation of HCC1428 cells into the right flank of BALB/c nude mice. Mice were injected subcutaneously with estradiol benzoate one day prior to cell inoculation and then twice per week thereafter to promote optimal growth of the ER^+ cell line. Groups of 9 animals each were established by random assignment. Tumor volumes and body weights were measured twice weekly. Tumor volume and percent tumor growth inhibition (TGI) or percent tumor regression (REG) were calculated as described in Example 4A. End-of-study Day […] TGI or REG was calculated relative to the Day 25 mean TV from the vehicle group. Statistical analysis of the Day 25 tumor volumes was performed using the Brown-Forsythe and Welch ANOVA test.
# Compound treatment was initiated when the mean tumor volume of each group was 184 mm^3. Compound 1 was administered to mice orally for 25 days once daily (QD) at a dose of 100 mg/kg based on body weight. Abemaciclib was administered orally at a dose of 30 mg/kg QD for 25 days based on body weight and fulvestrant was administered subcutaneously at a dose of 5 mg/mouse once per week (QW). Following the dosing period of 25 days, an observation period was conducted for Group 5 (Compound 1+abemaciclib), Group 7 (abemaciclib+fulvestrant), and Group 8 (Compound 1+abemaciclib+fulvestrant) with continued twice weekly measurement of tumor volume and body weight measurements but no additional administration of compound.
# T1 sequence (P28223 whole entry): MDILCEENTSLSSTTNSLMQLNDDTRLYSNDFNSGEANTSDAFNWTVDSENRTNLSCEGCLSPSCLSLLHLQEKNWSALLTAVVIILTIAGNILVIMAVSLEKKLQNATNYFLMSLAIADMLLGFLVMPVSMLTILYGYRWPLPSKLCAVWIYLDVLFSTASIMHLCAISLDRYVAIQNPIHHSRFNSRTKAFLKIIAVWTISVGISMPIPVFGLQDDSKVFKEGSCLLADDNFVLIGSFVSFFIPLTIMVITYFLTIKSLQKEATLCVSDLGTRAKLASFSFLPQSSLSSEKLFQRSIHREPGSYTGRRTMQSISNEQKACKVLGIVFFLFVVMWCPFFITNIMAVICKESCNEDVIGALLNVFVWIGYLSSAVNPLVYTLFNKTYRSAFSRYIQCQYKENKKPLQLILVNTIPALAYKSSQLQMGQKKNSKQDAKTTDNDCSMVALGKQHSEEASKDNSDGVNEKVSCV
compound,measurement,setting,value
"[2H]C([2H])(c1cnn(C)c1)N1C(=O)c2cc(S(=O)(=O)NC3(C)CC3)ccc2N2C1=NC[C@H]2C [Compound 1, (R)-1-methyl-4-((1-methyl-1H-pyrazol-4-yl)methyl-d2)-N-(1-methylcyclopropyl)-5-oxo-1,2,4,5-tetrahydroimidazo[1,2-a]quinazoline-7-sulfonamide]",inhibition at 10 µM,5-HT2A receptor [1],64%
same,inhibition at 10 µM,human A1 receptor,67%
same,IC50,5-HT2A receptor [2],21 µM
same,Kb,5-HT2A receptor [2]; read-out: dissociation constant (KB),4.2 µM
same,mean decrease in body weight,[3],4.6%
same,better potency than niraparib in PARPi resistant SNU601,[4],10 ×
same,IC50,"[4]; Homo sapiens, SNU-601, 144 h, read-out: IC50 inhibition of proliferation",0.32 µM
same,IC50,"GP2D cells; Homo sapiens, GP2d, exatecan 0.03 nM",6 µM
same,IC50,"GP2D cells; Homo sapiens, GP2d, exatecan 0.1 nM",5.1 µM
same,IC50,"GP2D cells; Homo sapiens, GP2d, exatecan 0.3 nM",3.1 µM
same,IC50,"GP2D cells; Homo sapiens, GP2d, exatecan 1 nM",3.1 µM
same,IC50,"GP2D cells; Homo sapiens, GP2d, exatecan 3 nM",8.1 µM
same,IC50,"GP2D cells; Homo sapiens, GP2d, exatecan 30 nM",5.4 µM
same,IC50,GP2D cells; exatecan 0.03 nM,6.3 µM
same,IC50,GP2D cells; exatecan 1 nM,3.3 µM
same,tolerability,[5],well tolerated
